Measured values published in ChEMBL document CHEMBL2363022, “Malaria Box Schistosomiasis Screening Data” (2013).

Tests used:
Schistosoma mansoni [1] = test: MMV: Toxicity @ 5 uM to 4-5 Schistosoma mansoni adult males after 24 h on a scale of 0 (none) - 4 (most). Includes short descriptors of effects as judged visually (PMID:19597541). Only those Malaria box 'drug-like' cpds yielding the most severe phenotypes vs. somules were tested. Caffrey group UCSF.; type: functional
Schistosoma mansoni [2] = test: (§1) MMV: Motility assay. Percent change (relative to DMSO controls) @ 5 uM of movement of 4-5 Schistosoma mansoni adult males after 72 h as measured by the Consensus Voting Luminance Difference algorithm available on WormAssay (PMID:22303493). Occasional incongruence ocurrs between the motility scores and the visually adjudicated 'toxicity scores'. In these cases the 'toxicity score' should be prioritized. Only those Malaria box 'Drug-like' cpds yielding the most severe phenotypes vs. somules were tested. Caffrey group UCSF.; type: functional
Schistosoma mansoni [3] = test: as §1, with “24” for “72”; type: functional
Schistosoma mansoni [4] = type: functional; parameters: scale not given here
Schistosoma mansoni [5] = test: MMV: Toxicity @ 5 uM to 4-5 Schistosoma mansoni adult males after 48 h on a scale of 0 (none) - 4 (most). Includes short descriptors of effects as judged visually (PMID:19597541). Only those Malaria box 'drug-like' cpds yielding the most severe phenotypes vs. somules were tested. Caffrey group UCSF.; type: functional
Schistosoma mansoni [6] = type: functional; parameters: scale not given here; remark: listed apart in the source
Schistosoma mansoni [7] = test: as §1, with “48” for “72”; type: functional
Schistosoma mansoni [8] = type: functional; parameters: scale not given here; remark: listed apart in the source
Schistosoma mansoni [9] = test: MMV: Toxicity @ 5 uM to 4-5 Schistosoma mansoni adult males after 72 h on a scale of 0 (none) - 4 (most). Includes short descriptors of effects as judged visually (PMID:19597541). Only those Malaria box 'drug-like' cpds yielding the most severe phenotypes vs. somules were tested. Caffrey group UCSF.; type: functional
Schistosoma mansoni [10] = system: Schistosoma mansoni

| SMILES | Toxicity (Schistosoma mansoni [1]) | Motility (Schistosoma mansoni [2]) | Motility (Schistosoma mansoni [3]) | Toxicity (Schistosoma mansoni [4]) | Toxicity (Schistosoma mansoni [5]) | Toxicity (Schistosoma mansoni [6]) | Motility (Schistosoma mansoni [7]) | Toxicity (Schistosoma mansoni [8]) | Toxicity (Schistosoma mansoni [9]) | Toxicity (Schistosoma mansoni [10]) |
| --- | --- | --- | --- | --- | --- | --- | --- | --- | --- | --- |
| CCCCc1ccc(NS(=O)(=O)c2cc3c4c(c2)CCN4C(=O)CC3)cc1 | 0 | 80.4 | 109.4 | 0 | 0 | 2 | 170.6 | 0 | 0 |  |
| COc1cccc(O)c1CN1CCC2(CCCN(Cc3ccc(F)cc3)C2)C1 (stereo not given) | 0 | 92.4 | 168.1 | 3 | 0 | 3 | 133.2 | 2 | 0 |  |
| Cc1cc(C)c2nc(N3CCC(C(=O)NCCCN4CCC(N5CCCCC5)CC4)CC3)sc2c1 | 0 | 117 | 97.4 | 4 | 0 | 4 | 125.2 | 4 | 0 |  |
| Cc1cc(N2CCCC2)nc(Nc2ccc(NC(=O)CCc3ccccc3)cc2)n1 | 2 | Slow | 28.9 | 4 | 3 | 0 | 104.8 | 4 | 1 |  |
| CCOc1cc(Cl)c(C(C)NC(=O)c2cccc(OC)c2)cc1OCC (stereo not given) |  |  |  | 2 |  | 1 |  |  |  | No effect |
| CNCCCNc1ccnc2cc(Cl)ccc12 | 0 | No effect | 113.2 | 2 | 0 | 2 | 116.2 | 2 | 0 |  |
| O=C(NC(c1ccccc1)c1ccc2cccnc2c1O)c1ccccc1 (stereo not given) | 0 | Slow, on sides, dark, tegument damage | 74 | 4 | 3 | 0 | 16.1 | 3 | 4 |  |
| CC(C)OCc1cc(CN2CCN(c3cccc(Cl)c3)CC2)c(O)c2ncccc12 | 2 | 59.8 | 27.4 | 4 | 2 | 2 | 55.2 | 3 | 2 |  |
| Cl.Clc1cc(Br)ccc1-c1ccc(CNCC2CCNCC2)o1 | 2 | On sides, dark | 27.8 | 4 | 3 | 4 | 52.5 | 4 | 2 |  |
| Clc1ccc2c(N3CCCC3)ccnc2c1 | 0 | No effect | 163 | 2 | 0 | 1 | 131.1 | 0 | 0 |  |
| CC(C)(C)c1ccc(C(=O)Nc2nc3ccccc3s2)cc1 | 0 | 118 | 58.5 | 0 | 0 | 2 | 113.8 | 0 | 0 |  |
| Cl.N=c1n(CCN2CCCCC2)c2ccccc2n1CC(O)c1cccc(Br)c1 (stereo not given) | 0 | 114.5 | 92.2 | 4 | 0 | 2 | 74.8 | 2 | 0 |  |
| COc1ccc(-c2nc3cc(Cc4ccc5[nH]c(-c6ccc(OC)cc6)nc5c4)ccc3[nH]2)cc1 | 3 | 12.4 | 17.2 | 4 | 3 | 3 | 24.7 | 4 | 4 |  |
| CN(C)CCNc1cc(-c2ccccc2)nc2ccccc12 | 1 | No effect | 151.9 | 1 | 0 | 2 | 68.3 | 2 | 0 |  |
